The structures appear in SMILES notation.

By IC50 is commonly meant the concentration that gives 50% inhibition. Lower therefore signals greater potency.

One assay relates to Wnt signalling (SNU398). The assay can be described thus: TopFlash dual luciferase assay, SNU398. The class given is cell-based, human. Here is the method: (§1) Briefly, 50 µl of indicated cell lines at 84'000/ml for Huh7, or 96'000/ml for SNU398, or 144'000/ml for HepG2, Hep3B were distributed in a white opaque 384-well plate. The cells were maintained in their respective culture mediums and incubated at 37°C, 5% CO2 overnight for attachment. Afterwards, the cells are double-transfected (1:1 mixture) with the Wnt-specific TopFlash reporter plasmid (Syngene) and a Wnt-independent CMV-Renilla plasmid monitoring the general level of cell transcription (Addgene, Cambridge, MA, USA). The relative nature of this representation (ratio of the TopFlash to the CMV-Renilla levels) permits to compare Wnt pathway levels across cell types, being independent from individual cell transfection efficiency.
(§2) Transfection was carried out as described in the manufacturer's protocol using 12 µg/ml of DNA and 40 µl/ml XtremeGENE 9 reagent (Roche). The next day, the medium of each well was replaced 30 µl fresh medium containing Wnt3a (500 ng/ml) (purified as described by (Koval and Katanaev, 2011, Biochemical Journal 433, 435) or GSK3β inhibitor (CHIR99021, Sigma-Aldrich) and clofazimine at 5, 10, and 15 µM concentrations (following 1h of preincubation with the compound). After overnight incubation, the supernatant in each well was removed and the luciferase activity was measured as described (Koval and Katanaev, 2011, supra). […]

The next assay concerns Wnt signalling (Huh7). In words: TopFlash dual luciferase assay, Huh7. The class given is cell-based, human. The protocol: as §1, §2
The test system of another assay is Wnt signalling (Hep3B). In words: TopFlash dual luciferase assay, Hep3B. The class given is cell-based, human. The protocol:
as §1, §2

For the next assay, the system named is Wnt signalling (HepG2). The assay can be described thus: TopFlash dual luciferase assay, HepG2. In kind it is cell-based, human. Here is the method: as §1, §2
Another assay deals with Huh7. The assay can be described thus: MTT survival assay, Huh7. The class given is cell-based. Particulars: Homo sapiens, Huh-7, Huh7 cells, incubation 4-7 days. Here is the method:
(§3) The four hepatocellular carcinoma (HCC) cell lines were tested in MTT survival assay with clofazimine as described below: 50 µl of the indicated cell lines re-suspended at 60'000 cells/ml for HepG2, Hep3B, at 35'000/ml for Huh7 and at 40'000/ml for SNU398 were added into each well of a transparent 384-well plate. The cells were maintained in DMEM containing 10% FBS for Hep3B; RPMI with 10% FBS for SNU398; DMEM without glucose containing 10% FBS and 1g/L glucose for Huh7 and MEM without glucose containing 10% FBS for HepG2 and incubated at 37°C, 5% CO2 overnight. The medium of each well was replaced by 100 µl fresh medium the next day containing the indicated concentrations of clofazimine. After incubation for 4-7 days (depending on the growth rate of line), the medium in each well was replaced by 50 µl of 0.5 mg/ml Thiazolyl blue (Carl Roth) solution in 1xPBS. The plates were incubated for 3h at 37°C. Then the solution was removed and 50 µl DMSO was added into each well. Absorbance at 570 nm was measured in a Tecan Infinite M200 PRO plate reader.
In general terms: Tetrazolium assays rely on reduction of a dye to a coloured formazan, in cell work by metabolically active cells.

In the next assay the test system is SNU398. The assay can be described thus: MTT survival assay, SNU398. In kind it is cell-based, human. The protocol:
as §3

In a further assay the test system is Hep3B. In words: MTT survival assay, Hep3B. In kind it is cell-based, human. Here is the method: as §3
Another assay deals with HepG2. The assay can be described thus: MTT survival assay, HepG2. In kind it is cell-based. Particulars: Homo sapiens, HepG2 cells, incubation 4-7 days. Here is the method:
as §3

Setting [1] is: versus relatively low basal level.
Where [2] appears, read: clofazimine 5, 10, 15 µM, Wnt3a 500 ng/ml.

Take `Cc1c[nH]c(-c2cnc(NCCNc3ccc(C#N)cn3)nc2-c2ccc(Cl)cc2Cl)n1` [CHIR99021]: the “stimulation of Wnt signalling levels by activator (TopFlash)” value in the assay on Wnt signalling (SNU398) (versus very high basal level) was “not at all or to at best limited extent further increased”; in the assay with Wnt signalling (Huh7) (setting [1]), “strongly stimulated”; in the assay on Wnt signalling (Hep3B) (setting [1]), “strongly stimulated”; with Wnt signalling (HepG2) (versus very high basal level) it was “not at all or to at best limited extent further increased”.

`CC(C)N=c1cc2n(-c3ccc(Cl)cc3)c3ccccc3nc-2cc1Nc1ccc(Cl)cc1` [clofazimine, N,5-bis(4-chlorophenyl)-3-(propan-2-ylimino)-3,5-dihydrophenazin-2-amine]: the “inhibiting effect on Wnt signaling (Wnt3a-induced response in the TopFlash assay)” value in the assay on Wnt signalling (SNU398) (setting [2]) is on record as “inhibited”; in the assay on Wnt signalling (Huh7) (setting [2]) it was “non-responsive”; with Wnt signalling (Hep3B) (setting [2]), “inhibited”; in the assay on Wnt signalling (HepG2) (setting [2]), “non-responsive”. The concentration for half-maximal inhibition (IC50) was 13 µM with Huh7; 1 to 2 µM in the assay on SNU398 (Homo sapiens, SNU-398, SNU398 cells, MTT, incubation 4-7 days); 1 to 2 µM with Hep3B (Homo sapiens, Hep3B cells, MTT, incubation 4-7 days); 17 µM in the assay on HepG2. Further, the “stronger sensitivity to growth inhibition than HepG2 and Huh7” value in the assay on SNU398 (SNU398 versus HepG2 and Huh7, MTT assay) is recorded as above 10 fold; in the assay on Hep3B (Hep3B versus HepG2 and Huh7, MTT assay), above 10 fold.

Values taken from patent EP3991732A1, “USE OF CLOFAZIMINE IN HEPATOCELLULAR CARCINOMA” (UNIVERSITE DE GENEVE, priority 2020, dated 2022).
